Test results taken from patent publication US9107415B2, “2-(substituted-phenyl)-cyclopentane-1,3-dione compounds, and derivatives thereof” (Syngenta Limited, priority 2011, dated 2015).

Key:
Format in all cases: in vivo
[1] = system: Echinochloa crus-galli (ECHCG); assay: Biological Example 1 glasshouse screen, post-emergence herbicidal activity; conditions: 312 h, application rate 250 g/ha, evaluated after 13 days, read-out: ECHCG percentage phytotoxicity
In short: (§1)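 Thirteen days after spraying, each species was given a visual phytotoxicity score (100% = total damage; 0% = none). Application was made one day post-sowing for pre-emergence and after 8 days' cultivation for post-emergence; conditions 24/16°C, 14 h photoperiod, 65% humidity.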

[2] = system: Alopecurus myosuroides (ALOMY); assay: as above; conditions: 312 h, application rate 250 g/ha, evaluated after 13 days, read-out: ALOMY percentage phytotoxicity
In short: as §1

[3] = system: Setaria faberi (SETFA); assay: as above; conditions: application rate 250 g/ha, evaluated after 13 days
Procedure: (§2) Seeds of a variety of test species were sown in standard soil in pots. After cultivation for one day (pre-emergence) or after 8 days cultivation (post-emergence) under controlled conditions in a glasshouse (at 24/16°C., day/night; 14 hours light; 65% humidity), the plants were sprayed with an aqueous spray solution derived from the formulation of the “technical”(i.e. unformulated) active ingredient in acetone/water (50:50) solution containing 0.5% Tween 20 (polyoxyethylene sorbitan monolaurate, CAS Registry Number 9005-64-5). The test plants were then grown in a glasshouse under controlled conditions in a glasshouse (at 24/16°C., day/night; 14 hours light; 65% humidity) and watered twice daily. After 13 days for pre- or post-emergence, the test was evaluated visually, and an assessed percentage phytotoxicity score given for each herbicidal application on each plant/weed species (with 100%=total damage to plant; 0%=no damage to plant).
(§3) Test plants: Alopecurus myosuroides (ALOMY), Setaria faberi (SETFA), Echinochloa crus-galli (ECHCG), Solanum nigrum (SOLNI), Amaranthus retroflexus (AMARE) and Ipomoea hederacea (IPOHE). ALOMY, SETFA and ECHCG are grassy monocotyledonous weeds. SOLNI, AMARE and IPOHE are dicotyledonous (broadleaved) weeds.

[4] = system: Ipomoea hederacea (IPOHE); assay: as above; conditions: application rate 250 g/ha, evaluated after 13 days
Procedure: as §2, §3

[5] = system: Solanum nigrum (SOLNI); assay: as above; conditions: application rate 250 g/ha, evaluated after 13 days
Procedure: as §2, §3

[6] = system: Amaranthus retroflexus (AMARE); assay: as above; conditions: application rate 250 g/ha, evaluated after 13 days
Procedure: as §2, §3

[7] = system: Echinochloa crus-galli (ECHCG); assay: Biological Example 1 glasshouse screen, pre-emergence herbicidal activity; conditions: 312 h, application rate 250 g/ha, evaluated after 13 days, read-out: ECHCG percentage phytotoxicity
In short: as §1

[8] = system: Alopecurus myosuroides (ALOMY); assay: as above; conditions: 312 h, application rate 250 g/ha, evaluated after 13 days, read-out: ALOMY percentage phytotoxicity
In short: as §1

[9] = system: Setaria faberi (SETFA); assay: Biological Example 2 post-emergence herbicidal activity (comparative data)
Procedure: as §2
(§4) Comparative herbicidal data are given for certain exemplified compounds with 4-(prop-1-ynyl)-2,6-dimethylphenyl or 4-(chloroethynyl)-2,6-dimethylphenyl headgroups, compared to the corresponding comparative compounds with 4-ethynyl-2,6-dimethylphenyl headgroups, as follows.
(§5) Except where specified otherwise, the glasshouse screen for herbicidal activity is substantially the same as that presented in Biological Example 1 hereinabove. The weed abbreviations are as defined in Biological Example 1.

[10] = system: Echinochloa crus-galli (ECHCG); assay: as above; conditions: 312 h, read-out: ECHCG percentage phytotoxicity
Procedure: as §2, §4, §5

[11] = system: Alopecurus myosuroides (ALOMY); assay: as above; conditions: 312 h, read-out: ALOMY percentage phytotoxicity
Procedure: as §2, §4, §5

[12] = system: Setaria faberi (SETFA); assay: Biological Example 1 glasshouse screen, pre-emergence herbicidal activity; conditions: application rate 250 g/ha, evaluated after 13 days
Procedure: as §2, §3

[13] = system: Ipomoea hederacea (IPOHE); assay: as above; conditions: application rate 250 g/ha, evaluated after 13 days
Procedure: as §2, §3

[14] = system: Solanum nigrum (SOLNI); assay: as above; conditions: application rate 250 g/ha, evaluated after 13 days
Procedure: as §2, §3

[15] = system: Amaranthus retroflexus (AMARE); assay: as above; conditions: application rate 250 g/ha, evaluated after 13 days
Procedure: as §2, §3

[16] = system: Lolium perenne (LOLPE); assay: Biological Example 1 glasshouse screen, post-emergence herbicidal activity; conditions: 312 h, application rate 250 g/ha, evaluated after 13 days, read-out: LOLPE percentage phytotoxicity
In short: (§6)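 Pots in a glasshouse (24/16°C day/night, 14 h light, 65% humidity) were sprayed one day after sowing (pre-emergence) or after 8 days (post-emergence), using acetone/water (50:50) with 0.5% Tween 20. Phytotoxicity was scored visually as % damage (0-100) 13 days after application.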

[17] = system: Avena fatua (AVEFA); assay: as above; conditions: 312 h, application rate 250 g/ha, evaluated after 13 days, read-out: AVEFA percentage phytotoxicity
In short: as §6

[18] = system: Lolium multiflorum (LOLMU); assay: Biological Example 4A (previously-formulated compounds) post-emergence herbicidal activity on grassy weeds; conditions: 14 DAA, EC formulation, mean of two
Procedure: (§7) Seeds of a variety of test species are sown in standard soil in pots. After cultivation for 14 days under controlled conditions in a glasshouse (at 22/16°C., day/night; 16 hours light; 65% humidity), the plants are sprayed with the test compounds. The test plants are then grown on under controlled conditions in the glasshouse (at 22/16°C., day/night; 16 hours light; 65% humidity) and are watered twice daily. After 14 days the test is evaluated visually (100%=total damage to plant; 0%=no damage to plant). Post-emergence herbicidal activity (phytotoxicity) data, on certain grassy monocotyledonous weeds and cereal crops in a glasshouse, are measured 14 days after application of the herbicide (14 DAA), inter alia for post-emergence application rates of 30 or 60 g/ha of the test herbicide, with or without 50 g/ha of cloquintocet-mexyl safener applied at substantially the same time as the herbicide.
(§8) Herbicidal activity (phytotoxicity) is evaluated visually, and an assessed percentage phytotoxicity score is given for each herbicidal application on each plant species (with 100%=total damage to plant; 0%=no damage to plant). Two repetitions are made for each experiment and the mean herbicidal activity (phytotoxicity) data is reported.
(§9) Biological Example 4A is used on previously-formulated compounds, typically compounds previously formulated as an emulsifiable concentrates (EC), wherein the EC contains the herbicidal compound under test dissolved in one or more organic solvents, and wherein the EC also contains one or more surfactants or emulsifiers. In the test method, the EC containing the herbicide (plus a cloquintocet-mexyl formulation if this is also present) is generally diluted with water to form an emulsion, and the resulting emulsion is sprayed onto the emerged weed and/or crop plants.
(§10) For the testing of Compounds A-5 and A-6, each of these compounds was separately formulated into an emulsifiable concentrate containing 10% w/w of the herbicidal compound, 9% w/w of castor oil ethoxylate (an emulsifier, present as Emulsogen™EL360), 6% w/w of calcium dodecylbenzenesulfonate (linear) (an emulsifier, present as Nansa™EVM 63B), 3% w/w of tristyrylphenol ethoxylate having 16 moles of ethoxylation per mole of molecule (an emulsifier, present as Soprophor™BSU), 10% w/w of benzyl benzoate (as solvent), 20% w/w of 1-methyl-2-pyrrolidone (as solvent), and the remainder of N-octyl-2-pyrrolidone (as solvent). The solvents and surfactants/emulsifiers were first mixed together, to form a “blank” EC, and the herbicidal compound was then added to and dissolved in this solvent and emulsifier mixture to prepare the emulsifiable concentrate, to give an EC formulation/composition containing approximately 100 g/L of active herbicidal compound.
(§11) In the tests of Compounds A-5 and A-6, the cloquintocet-mexyl was pre-formulated as a formulation/composition containing 10% w/w cloquintocet-mexyl, 6% w/w Emulsogen™ EL360 (as emulsifier), 4% w/w Nansa™EVM 63B (as wetting agent), 1% w/w Drapex™39 (epoxidised soybean oil), 20% w/w 1-methyl-2-pyrrolidone (as solvent), and the remainder as Solvesso™200ND (a mixture of heavy aromatic hydrocarbons, as a solvent).
(§12) Test plants: Avena fatua (AVEFA), Lolium multiflorum (LOLMU), Setaria viridis (SETVI), Poa annua (POAAN), Alopecurus myosuroides (ALOMY). All five of these are grassy monocotyledonous weeds.

[19] = system: Poa annua (POAAN); assay: as above; conditions: 14 DAA, EC formulation, mean of two
Procedure: as §7, §8, §9, §10, §11, §12

[20] = system: Setaria viridis (SETVI); assay: as above; conditions: 14 DAA, EC formulation, mean of two
Procedure: as §7, §8, §9, §10, §11, §12

[21] = system: Alopecurus myosuroides (ALOMY); assay: as above; conditions: 14 DAA, EC formulation, mean of two
Procedure: as §7, §8, §9, §10, §11, §12

[22] = system: Avena fatua (AVEFA); assay: as above; conditions: 14 DAA, EC formulation, mean of two
Procedure: as §7, §8, §9, §10, §11, §12

[23] = system: Spring Wheat “Teal”; assay: Biological Example 4A post-emergence phytotoxicity on cereal crops; conditions: 14 DAA, EC formulation, mean of two
Procedure: as §7, §8, §9, §10, §11

[24] = system: Winter Barley “Suzuka”; assay: as above; conditions: 14 DAA, EC formulation, mean of two
Procedure: as §7, §8, §9, §10, §11

[25] = system: Spring Barley “Harrington”; assay: as above; conditions: 14 DAA, EC formulation, mean of two
Procedure: as §7, §8, §9, §10, §11

[26] = system: Winter Wheat “Hereward”; assay: as above; conditions: 14 DAA, EC formulation, mean of two
Procedure: as §7, §8, §9, §10, §11

[27] = 30 g/ha, cloquintocet-mexyl 0 g/ha
[28] = 30 g/ha, cloquintocet-mexyl 50 g/ha
[29] = 60 g/ha, cloquintocet-mexyl 0 g/ha
[30] = 60 g/ha, cloquintocet-mexyl 50 g/ha

With `Cc1cc(C#CCl)cc(C)c1C1=C(O)CC(Cc2ccccn2)C1=O` (racemic) [Compound A-3, rac-2-(4-Chloroethynyl-2,6-dimethylphenyl)-4-(pyridin-2-ylmethyl)cyclopentane-1,3-dione] the pest or weed control at 250 g/ha [1] was 100%, the pest or weed control at 250 g/ha [2] was 90% and the SEFTA percentage phytotoxicity [3] was 100%. The IPOHE percentage phytotoxicity [4] was 30%, the SOLNI percentage phytotoxicity [5] was 70% and the AMARE percentage phytotoxicity [6] was 60%. The pest or weed control at 250 g/ha [7] was 100%, the pest or weed control at 250 g/ha [8] was 90% and the SETFA percentage phytotoxicity ([9]; 15.625 g/ha application rate) was 80%. It also gave an SETFA percentage phytotoxicity ([9]; 62.5 g/ha application rate) of 90%, a pest or weed control at 15.625 g/ha ([10]; 15.625 g/ha application rate) of 100% and a pest or weed control at 62.5 g/ha ([10]; 62.5 g/ha application rate) of 100%. It also gave a pest or weed control at 15.625 g/ha ([11]; 15.625 g/ha application rate) of 90%, a pest or weed control at 62.5 g/ha ([11]; 62.5 g/ha application rate) of 90% and an SEFTA percentage phytotoxicity [12] of 100%. For the same molecule, the IPOHE percentage phytotoxicity [13] was 70%, the SOLNI percentage phytotoxicity [14] was 90% and the AMARE percentage phytotoxicity [15] was 90%.
In the case of `CC#Cc1cc(C)c(C2=C(O)C[C@H](Cc3ccccn3)C2=O)c(C)c1` [Compound A-5], the pest or weed control at 250 g/ha [1] is reported as 90%, the pest or weed control at 250 g/ha [2] is reported as 80% and the pest or weed control at 250 g/ha [16] is reported as 80%. It also gave a pest or weed control at 250 g/ha [17] of 90%, an LOLMU % phytotoxicity [18, 27] of 93% and an LOLMU % phytotoxicity [18, 28] of 68%. The LOLMU % phytotoxicity [18, 29] was 95%, the LOLMU % phytotoxicity [18, 30] was 99% and the POAAN % phytotoxicity [19, 27] was 0%. It also gave a POAAN % phytotoxicity [19, 28] of 13%, a POAAN % phytotoxicity [19, 29] of 18% and a POAAN % phytotoxicity [19, 30] of 5%. For the same molecule, the SETVI % phytotoxicity [20, 27] was 80%, the SETVI % phytotoxicity [20, 28] was 85% and the SETVI % phytotoxicity [20, 29] was 98%. It also gave an SETVI % phytotoxicity [20, 30] of 95%, an ALOMY % phytotoxicity [21, 27] of 58% and an ALOMY % phytotoxicity [21, 28] of 63%. The ALOMY % phytotoxicity [21, 29] was 93%, the ALOMY % phytotoxicity [21, 30] was 98% and the AVEFA % phytotoxicity [22, 27] was 58%. For the same molecule, the AVEFA % phytotoxicity [22, 28] was 23%, the AVEFA % phytotoxicity [22, 29] was 83% and the AVEFA % phytotoxicity [22, 30] was 68%. For the same molecule, the “Spring Wheat “Teal” phytotoxicity (%)” value [23, 27] was 43%, the “Spring Wheat “Teal” phytotoxicity (%)” value [23, 28] was 0% and the “Spring Wheat “Teal” phytotoxicity (%)” value [23, 29] was 80%. For the same molecule, the “Spring Wheat “Teal” phytotoxicity (%)” value [23, 30] was 0%, the “Winter Barley “Suzuka” phytotoxicity (%)” value [24, 27] was 33% and the “Winter Barley “Suzuka” phytotoxicity (%)” value [24, 28] was 0%. For the same molecule, the “Winter Barley “Suzuka” phytotoxicity (%)” value [24, 29] was 65%, the “Winter Barley “Suzuka” phytotoxicity (%)” value [24, 30] was 0% and the “Spring Barley “Harrington” phytotoxicity (%)” value [25, 27] was 73%. For the same molecule, the “Spring Barley “Harrington” phytotoxicity (%)” value [25, 28] was 3%, the “Spring Barley “Harrington” phytotoxicity (%)” value [25, 29] was 88% and the “Spring Barley “Harrington” phytotoxicity (%)” value [25, 30] was 18%. The “Winter Wheat “Hereward” phytotoxicity (%)” value [26, 27] was 40%, the “Winter Wheat “Hereward” phytotoxicity (%)” value [26, 28] was 0% and the “Winter Wheat “Hereward” phytotoxicity (%)” value [26, 29] was 53%. For the same molecule, the “Winter Wheat “Hereward” phytotoxicity (%)” value [26, 30] was 0%.
